Non-standard residues stand in square brackets, D forms with d. Residues, ends and D or L forms follow the SMILES beside them. *: point of attachment. DOTA = O=C(O)CN1CCN(CC(=O)O)CCN(CC(=O)*)CCN(CC(=O)O)CC1; Bpa = N[C@@H](Cc1ccc(C(=O)c2ccccc2)cc1)C(=O)O; Ala(4-thiazolyl) = N[C@@H](Cc1cscn1)C(=O)O; d2Nal = N[C@H](Cc1ccc2ccccc2c1)C(=O)O; His(π-Me) = Cn1cncc1C[C@H](N)C(=O)O; azaGly = NNC(=O)O; Sar = CNCC(=O)O
The compounds below were run on LHRH binding sites on human ovarian cancer cells (EFO-27). Details: not given.
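Further: Cell-associated radioactivity on confluent EFO-27 monolayers in 96-well plates, measured by microplate scintillation counting.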

Structure (SMILES)	EC50
CN(CC(=O)N[C@@H](Cc1cncn1C)C(=O)N[C@@H](Cc1c[nH]c2ccccc12)C(=O)N[C@@H](CO)C(=O)N[C@@H](Cc1cscn1)C(=O)N[C@H](CCCNC(=N)N)C(=O)N[C@@H](Cc1c[nH]c2ccccc12)C(=O)N[C@@H](Cc1ccc(C(=O)c2ccccc2)cc1)C(=O)N1CCC[C@H]1C(=O)NNC(N)=O)C(=O)CN1CCN(CC(=O)O)CCN(CC(=O)O)CCN(CC(=O)O)CC1 [BRU-2739] ({DOTA}-[Sar][His(π-Me)]WS[Ala(4-thiazolyl)][dR]W[Bpa]P[azaGly]-NH2; C-terminus assumed)	5.28 µM
CN(CC(=O)N[C@@H](Cc1c[nH]c2ccccc12)C(=O)N[C@@H](CO)C(=O)N[C@@H](Cc1cscn1)C(=O)N[C@H](CCCNC(=N)N)C(=O)N[C@@H](Cc1c[nH]c2ccccc12)C(=O)N[C@@H](Cc1ccc(C(=O)c2ccccc2)cc1)C(=O)N1CCC[C@H]1C(=O)NNC(N)=O)C(=O)CN1CCN(CC(=O)O)CCN(CC(=O)O)CCN(CC(=O)O)CC1 [compound 2740] ({DOTA}-[Sar]WS[Ala(4-thiazolyl)][dR]W[Bpa]P[azaGly]-NH2)	5.53 µM
CN(CC(=O)N[C@@H](Cc1c[nH]cn1)C(=O)N[C@@H](Cc1c[nH]c2ccccc12)C(=O)N[C@@H](CO)C(=O)N[C@@H](Cc1c[nH]cn1)C(=O)N[C@H](CCCNC(=N)N)C(=O)N[C@@H](Cc1c[nH]c2ccccc12)C(=O)N[C@@H](Cc1ccc(C(C)(C)C)cc1)C(=O)N1CCC[C@H]1C(=O)NNC(N)=O)C(=O)CN1CCN(CC(=O)O)CCN(CC(=O)O)CCN(CC(=O)O)CC1 [BRU-2634]	0.98 µM
CNCC(=O)N[C@@H](CCCNC(=N)N)C(=O)N[C@@H](Cc1c[nH]c2ccccc12)C(=O)N[C@@H](CO)C(=O)N[C@@H](Cc1c[nH]cn1)C(=O)N[C@H](CCCNC(=N)N)C(=O)N[C@@H](Cc1c[nH]c2ccccc12)C(=O)N[C@@H](Cc1ccc(C(=O)c2ccccc2)cc1)C(=O)N1CCC[C@H]1C(=O)NCCCCNC(=O)CN1CCN(CC(=O)O)CCN(CC(=O)O)CCN(CC(=O)O)CC1 [BRU-3041]	0.23 to 0.5 µM
N=C(N)NCCC[C@H](NC(=O)[C@H](N)Cc1ccc2ccccc2c1)C(=O)N[C@@H](Cc1c[nH]c2ccccc12)C(=O)N[C@@H](CO)C(=O)N[C@@H](Cc1c[nH]cn1)C(=O)N[C@H](CCCNC(=N)N)C(=O)N[C@@H](Cc1c[nH]c2ccccc12)C(=O)N[C@@H](Cc1ccc(C(=O)c2ccccc2)cc1)C(=O)N1CCC[C@H]1C(=O)NCCOCCNC(=O)CN1CCN(CC(=O)O)CCN(CC(=O)O)CCN(CC(=O)O)CC1 [compound 2991]	0.21 ± 0.06 µM
CNCC(=O)N[C@@H](CCCNC(=N)N)C(=O)N[C@@H](Cc1c[nH]c2ccccc12)C(=O)N[C@@H](CO)C(=O)N[C@@H](Cc1c[nH]cn1)C(=O)N[C@H](CCCNC(=N)N)C(=O)N[C@@H](Cc1c[nH]c2ccccc12)C(=O)N[C@@H](Cc1ccc(C(=O)c2ccccc2)cc1)C(=O)N1CCC[C@H]1C(=O)NCCCN(C)CCCNC(=O)CN1CCN(CC(=O)O)CCN(CC(=O)O)CCN(CC(=O)O)CC1 [BRU-3045]	≤ 0.2 µM
N=C(N)NCCC[C@H](NC(=O)[C@@H](Cc1ccc2ccccc2c1)NC(=O)CN1CCN(CC(=O)O)CCN(CC(=O)O)CCN(CC(=O)O)CC1)C(=O)N[C@@H](Cc1c[nH]c2ccccc12)C(=O)N[C@@H](CO)C(=O)N[C@@H](Cc1c[nH]cn1)C(=O)N[C@H](CCCNC(=N)N)C(=O)N[C@@H](Cc1c[nH]c2ccccc12)C(=O)O [BRU-3046, DO3A10CM-Dna12-Arg-Trp-Ser-His-Darg-Trp-OH] (HELM PEPTIDE1{[O=C(O)CN1CCN(CC(=O)O)CCN(CC(=O)[*:2])CCN(CC(=O)O)CC1].[O=C([C@@H](Cc1ccc2ccccc2c1)N[*:1])[*:2]].R.W.S.H.[dR].W}$$$$V2.0)	15.8 µM
CN(CC(=O)N[C@@H](Cc1c[nH]cn1)C(=O)N[C@@H](Cc1c[nH]c2ccccc12)C(=O)N[C@@H](CO)C(=O)N[C@@H](Cc1c[nH]cn1)C(=O)N[C@H](CCCNC(=N)N)C(=O)N[C@@H](Cc1c[nH]c2ccccc12)C(=O)N[C@@H](Cc1c(F)c(F)c(F)c(F)c1F)C(=O)N1CCC[C@H]1C(=O)NNC(N)=O)C(=O)CN1CCN(CC(=O)O)CCN(CC(=O)O)CCN(CC(=O)O)CC1 [BRU-2722]	4.62 µM
CC(C)NCCCC[C@H](NC(=O)[C@H](Cc1c[nH]c2ccccc12)NC(=O)[C@@H](CCCNC(=N)N)NC(=O)[C@H](Cc1c[nH]cn1)NC(=O)[C@H](CO)NC(=O)[C@H](Cc1c[nH]c2ccccc12)NC(=O)[C@H](Cc1c[nH]cn1)NC(=O)CN(C)C(=O)CN1CCN(CC(=O)O)CCN(CC(=O)O)CCN(CC(=O)O)CC1)C(=O)N1CCC[C@H]1C(=O)NNC(N)=O [BRU-2675]	12.3 µM
N=C(N)NCCC[C@H](NC(=O)[C@@H](Cc1ccc2ccccc2c1)NC(=O)CN1CCN(CC(=O)O)CCN(CC(=O)O)CCN(CC(=O)O)CC1)C(=O)N[C@@H](Cc1c[nH]c2ccccc12)C(=O)N[C@@H](CO)C(=O)N[C@@H](Cc1c[nH]cn1)C(=O)N[C@H](CCCNC(=N)N)C(=O)N[C@@H](Cc1c[nH]c2ccccc12)C(=O)N[C@@H](Cc1ccc(C(=O)c2ccccc2)cc1)C(=O)N1CCC[C@H]1C(=O)NCCOCCNC(=N)N [compound 2985]	0.46 µM
N=C(N)NCCC[C@H](NC(=O)[C@@H](Cc1ccc2ccccc2c1)NC(=O)CN1CCN(CC(=O)O)CCN(CC(=O)O)CCN(CC(=O)O)CC1)C(=O)N[C@@H](Cc1c[nH]c2ccccc12)C(=O)N[C@@H](CO)C(=O)N[C@@H](Cc1c[nH]cn1)C(=O)N[C@H](CCCNC(=N)N)C(=O)N[C@@H](Cc1c[nH]c2ccccc12)C(=O)O [compound 3046] (HELM PEPTIDE1{[O=C(O)CN1CCN(CC(=O)O)CCN(CC(=O)[*:2])CCN(CC(=O)O)CC1].[O=C([C@@H](Cc1ccc2ccccc2c1)N[*:1])[*:2]].R.W.S.H.[dR].W}$$$$V2.0; N-terminus assumed)	15.9 µM

Same assay, conditions: EFO-27 cells, competition with [125I-Tyr8]BRU-2477, 90 min

Structure (SMILES)	EC50
N=C(N)NCCC[C@H](NC(=O)CNC(=O)[C@@H]1CCCN1C(=O)[C@H](Cc1ccc(C(=O)c2ccccc2)cc1)NC(=O)[C@H](Cc1c[nH]c2ccccc12)NC(=O)[C@@H](CCCNC(=N)N)NC(=O)[C@H](Cc1c[nH]cn1)NC(=O)[C@H](CO)NC(=O)[C@H](Cc1c[nH]c2ccccc12)NC(=O)[C@H](CCCNC(=N)N)NC(=O)[C@@H](Cc1ccc2ccccc2c1)NC(=O)CN1CCN(CC(=O)O)CCN(CC(=O)O)CCN(CC(=O)O)CC1)C(N)=O [compound 2969] ({DOTA}-[d2Nal]RWSH[dR]W[Bpa]PGR-NH2)	0.24 µM

Same assay, conditions: Table 5: modifications of amino acids at positions 1 and 2; in vitro binding on EFO-27 cells

Structure (SMILES)	EC50
N=C(N)NCCC[C@H](NC(=O)[C@H]1Cc2ccccc2CN1C(=O)CNC(=O)CN1CCN(CC(=O)O)CCN(CC(=O)O)CCN(CC(=O)O)CC1)C(=O)N[C@@H](Cc1c[nH]c2ccccc12)C(=O)N[C@@H](CO)C(=O)N[C@@H](Cc1c[nH]cn1)C(=O)N[C@H](CCCNC(=N)N)C(=O)N[C@@H](Cc1c[nH]c2ccccc12)C(=O)N[C@@H](Cc1ccc(C(=O)c2ccccc2)cc1)C(=O)N1CCC[C@H]1C(=O)NNC(N)=O [BRU-3067]	0.51 µM
N=C(N)NCCC[C@H](NC(=O)[C@@H]1Cc2ccccc2CN1C(=O)CNC(=O)CN1CCN(CC(=O)O)CCN(CC(=O)O)CCN(CC(=O)O)CC1)C(=O)N[C@@H](Cc1c[nH]c2ccccc12)C(=O)N[C@@H](CO)C(=O)N[C@@H](Cc1c[nH]cn1)C(=O)N[C@H](CCCNC(=N)N)C(=O)N[C@@H](Cc1c[nH]c2ccccc12)C(=O)N[C@@H](Cc1ccc(C(=O)c2ccccc2)cc1)C(=O)N1CCC[C@H]1C(=O)NNC(N)=O [BRU-3052]	0.55 µM
CN(CC(=O)N[C@@H](Cc1c[nH]cn1)C(=O)N[C@@H](Cc1c[nH]c2ccccc12)C(=O)N[C@@H](CO)C(=O)N[C@@H](Cc1c[nH]cn1)C(=O)N[C@H](CCCNC(=N)N)C(=O)N[C@@H](Cc1c[nH]c2ccccc12)C(=O)N[C@@H](Cc1ccc(C(=O)c2ccccc2)cc1)C(=O)N1CCC[C@H]1C(=O)NNC(N)=O)C(=O)CNC(=O)CN1CCN(CC(=O)O)CCN(CC(=O)O)CCN(CC(=O)O)CC1 [BRU-2717]	1.55 µM
N=C(N)NCCC[C@@H](NC(=O)[C@H](Cc1c[nH]cn1)NC(=O)[C@H](CO)NC(=O)[C@H](Cc1c[nH]c2ccccc12)NC(=O)[C@H](Cc1c[nH]cn1)NC(=O)[C@H](NC(=O)CNC(=O)CN1CCN(CC(=O)O)CCN(CC(=O)O)CCN(CC(=O)O)CC1)c1cccc2ccccc12)C(=O)N[C@@H](Cc1c[nH]c2ccccc12)C(=O)N[C@@H](Cc1ccc(C(=O)c2ccccc2)cc1)C(=O)N1CCC[C@H]1C(=O)NNC(N)=O [BRU-2770]	2.7 µM
CN(CC(=O)N[C@@H](CCCCN)C(=O)N[C@@H](Cc1c[nH]c2ccccc12)C(=O)N[C@@H](CO)C(=O)N[C@@H](Cc1c[nH]cn1)C(=O)N[C@H](CCCNC(=N)N)C(=O)N[C@@H](Cc1c[nH]c2ccccc12)C(=O)N[C@@H](Cc1ccc(C(=O)c2ccccc2)cc1)C(=O)N1CCC[C@H]1C(=O)NNC(N)=O)C(=O)CN1CCN(CC(=O)O)CCN(CC(=O)O)CCN(CC(=O)O)CC1 [BRU-2871] ({DOTA}-[Sar]KWSH[dR]W[Bpa]P[azaGly]-NH2)	10 µM

Same assay, conditions: Table 12: modification of amino acid at position 3; EFO-27 cells

Structure (SMILES)	EC50
N=C(N)NCCC[C@H](NC(=O)[C@@H](Cc1ccc2ccccc2c1)NC(=O)CN1CCN(CC(=O)O)CCN(CC(=O)O)CCN(CC(=O)O)CC1)C(=O)N[C@H](Cc1c[nH]c2ccccc12)C(=O)N[C@@H](CO)C(=O)N[C@@H](Cc1c[nH]cn1)C(=O)N[C@H](CCCNC(=N)N)C(=O)N[C@@H](Cc1c[nH]c2ccccc12)C(=O)N[C@@H](Cc1ccc(C(=O)c2ccccc2)cc1)C(=O)N1CCC[C@H]1C(=O)NNC(N)=O [compound 3112]	0.85 µM

Same assay, conditions: Table 15: C-terminus chelator-functionalized peptides; EFO-27 cells, vs [125I-Tyr8]BRU-2477

Structure (SMILES)	EC50
CNCC(=O)N[C@@H](CCCNC(=N)N)C(=O)N[C@@H](Cc1c[nH]c2ccccc12)C(=O)N[C@@H](CO)C(=O)N[C@@H](Cc1c[nH]cn1)C(=O)N[C@H](CCCNC(=N)N)C(=O)N[C@@H](Cc1c[nH]c2ccccc12)C(=O)N[C@@H](Cc1ccc(C(=O)c2ccccc2)cc1)C(=O)N1CCC[C@H]1CNC(=O)CN1CCN(CC(=O)O)CCN(CC(=O)O)CCN(CC(=O)O)CC1 [compound 3117] (HELM PEPTIDE1{[Sar].R.W.S.H.[dR].W.[O=C(c1ccccc1)c1ccc(C[C@H](N[*:1])C(=O)[*:2])cc1].[O=C(O)CN1CCN(CC(=O)O)CCN(CC(=O)NC[C@@H]2CCCN2[*:1])CCN(CC(=O)O)CC1]}$$$$V2.0; N-terminus assumed)	0.34 µM

From patent US20120045393A1 (priority 2009, published 2012)
